Assay in all cases: growth of human tumour cells (NCI), 48 h
In assay [1] the test system is COLO 205 colon.
Assay [2] deals with HCC-2998 colon.
Assay [3] concerns HCT-15 colon.
Assay [4] concerns HT29 colon.
The test system of assay [5] is K-562 leukemia.
In assay [6] the test system is SF-268 CNS.
Assay [7] relates to 786-0 renal.
Assay [8] has as its system U251 CNS.
Assay [9] concerns A498 renal.
Assay [10] has as its system MDA-N.
The test system of assay [11] is MCF7 breast.

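48-hour exposure; five concentrations; linearly interpolated endpoints. Abbreviation: GI50, concentration required for 50% inhibition of growth. At the TGI there is no net growth.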

In the case of `C#CCN1C(=O)CN2C(Cl)(Cl)C2(c2ccccc2)c2cc(Cl)ccc21` (stereo unspecified), the TGI in assay [1], in assay [2], in assay [3], in [4], in [5] and in [6] was over 100 µM throughout.

`Nc1ccc2ncc(NCc3ccc(F)cc3)nc2c1`: the TGI in assay [7], in [1], in assay [2], in [3], in assay [4] and in assay [5] was over 100 µM in each case. Moreover, the TGI in [6] and in assay [8] was over 100 µM each time.

For the molecule `O=C(NC1CCCCC1)N1CCNC1=S`, the TGI in assay [7], in assay [9], in assay [1], in assay [2], in assay [3] and in [4] was over 100 µM in each case. The TGI in assay [5], in assay [10] and in assay [6] was over 100 µM each time.

Regarding `N#Cc1ccccc1C#C/C=C\C#Cc1ccccn1`, the TGI in assay [7] was 41.9 µM; in assay [1] it was 73.5 µM; in assay [2], 27.6 µM; in assay [3] it was 70 µM; in assay [4], 41.6 µM; in assay [5] it was over 100 µM. The TGI in assay [11] amounted to 33.5 µM; in assay [6], 48.4 µM; in assay [8] it was 38.3 µM.

For `O=C1C2=C(c3ccccc31)C(c1ccc([N+](=O)[O-])cc1)NC(=S)N2` (stereo unspecified), the TGI in assay [7], in [9], in assay [1], in assay [3], in assay [4] and in assay [5] was over 100 µM each time. Moreover, the TGI in [6] and in assay [8] was over 100 µM in each case.

Turning to `Cc1ccc(C2=C(c3ccccc3)C(O)(c3ccccc3)C(c3ccccc3)=C2c2ccc(C)cc2)cc1`, the TGI in [7], in assay [9], in assay [2], in assay [3], in assay [4] and in [5] was over 100 µM each time. The TGI in assay [6] and in assay [8] was over 100 µM in each case.

In the case of `CC(C)C(N=C1CC2CCC1(C(=O)Nc1ccccc1O)C2(C)C)c1ccccc1` (stereo unspecified), the TGI in assay [7], in assay [9], in [1], in [2], in [3] and in [4] was over 10 µM each time. The TGI in [5], in assay [6] and in assay [8] was over 10 µM in each case.

As for `O/N=C1/C(=C/c2ccc(Br)cc2)CCCC1C(NO)c1ccc(Br)cc1` (stereo unspecified), the TGI in [7] was 32.9 µM; in assay [9] it was 23 µM; in assay [1], 28.7 µM; in [3], 31.8 µM; in assay [4] it was 35.4 µM; in assay [5], over 100 µM. Also, the TGI in [6] was 34.1 µM; in assay [8] it was 45.3 µM.

For the molecule `COc1ccccc1-c1nc[nH]c1-c1ccccc1OC`, the TGI is over 100 µM in [7]; over 100 µM in assay [9]; over 100 µM in [3]; 65 µM in [5]; over 100 µM in [11]; 34.9 µM in assay [10]. The same molecule yielded a TGI in assay [6] of 65.3 µM.

Regarding `Cn1c(=Nc2ccccc2[N+](=O)[O-])sc2ccccc21`, the TGI in [7], in assay [9], in assay [1], in assay [2], in assay [3] and in [4] was over 100 µM throughout. The TGI in assay [5], in [10], in assay [6] and in [8] was over 100 µM throughout.

For `CC(=O)Nc1ccc(S(=O)(=O)Nc2cnc3ccccc3n2)cc1`, the TGI in assay [7], in assay [9], in [1], in assay [2], in assay [3] and in assay [4] was over 100 µM in each case. The TGI in assay [5], in [6] and in [8] was over 100 µM throughout.

For `c1ccc(C2SCc3nc4ccccc4n32)cc1` (stereo unspecified), the TGI in [7], in assay [9], in assay [1], in [2], in assay [3] and in [4] was over 100 µM in each case. The TGI in [5], in assay [6] and in assay [8] was over 100 µM each time.

With `Cc1ccc2c(=O)cc(-c3ccccc3)[nH]c2n1`, the TGI was over 86 µM in [7]; 4.68 µM in [2]; 6.3 µM in [3]; 0.194 µM in [4]; 6.57 µM in assay [5]; over 55 µM in assay [11]. The TGI in assay [10] was 0.0999 µM; in assay [6], over 100 µM; in assay [8] it was over 26.3 µM.

Regarding `N#Cc1cc([N+](=O)[O-])ccc1NC(=O)C(=O)Nn1c(=S)[nH]c2ccccc2c1=O`, the TGI in assay [7], in assay [9], in assay [1], in [2], in [3] and in assay [4] was over 100 µM throughout. The TGI in [5], in [6] and in [8] was over 100 µM each time.

`COc1ccc(CNCCN2C(=O)c3ccc4c5c(ccc(c35)C2=O)C(=O)N(CCNCc2ccc(OC)c(OC)c2OC)C4=O)c(OC)c1OC`: the GI50 in [1] is 0.0899 µM; in [2], 0.167 µM; in [4], 0.164 µM; in [11], 0.222 µM. Also, the TGI in [1] was determined as 0.168 µM; in assay [2] it was 0.59 µM; in [4], 0.589 µM; in assay [11], 1.15 µM.

The record behind these values is PubChem BioAssay (NCI).
